Laboratory results taken from publication PMC12731105, “Design and Synthesis of New Quinoxaline Analogs to Regenerate Sensory Auditory Hair Cells” (Cells, 2025).

Key:
HT-1080 = experiment: TACS MTT cell proliferation / metabolic activity assay in HT-1080; type: cell-based, human; conditions: HT-1080, 0.1 to 100 μM
Protocol: HEI-OC1 cells derived from the mouse OC (kindly provided by Dr. F. Kalinec) were cultured under permissive conditions (33 °C, 10% CO2) as described in [22]. Additionally, we assessed the activity of Qx-derived compounds in the mouse neuroblastoma cell line, Neuro-2A, and the human fibrosarcoma HT-1080 (ATCC, Manassas, VA, USA) following the standard cell culture guidelines provided by the vendor.
In vitro cell proliferation effects of all ten initial compounds (Figure 1A,B) were tested on HEI-OC1, Neuro-2A and HT-1080 cells by TACS® 3-(4,5-dimethylthiazol-2-yl)-2,5-diphenyltetrazolium bromide (MTT) Cell Proliferation Assay (R&D Systems, Minneapolis, MN, USA, 4890-025-K), following the manufacturer’s protocol. Absorbance was measured with SpectraMax® M Series Multi-Mode Microplate Reader with Soft Max Pro 7.2 GxP Software (Molecular Devices, Sunnyvale, CA, USA), and the average OD in control cells was taken as 100% of viability. Upon selecting the most viable compounds (Qx-294 and Qx-301), we proceeded with in vivo experiments. For zebrafish treatment, animals were incubated for varied times with different concentrations (50, 100, 150, 200, 250, and 300 μg/mL) of Qx-294 or Qx-301 diluted in swimming (E3) media or administered via IP injections. Mice treatment followed the same procedures as described in [18]. Following treatment, animals or tissue samples were incubated in Click-it EdU or Click-it Plus TUNEL kits (Thermo Scientific, Waltham, MA, USA), following the manufacturer’s instructions to label proliferating and apoptotic cells, respectively.

[1] = test system: mechanotransduction channel activity of mouse cochlear HCs; experiment: FM1-43 uptake in mouse cochlear HCs; type: in vivo; conditions: mice, 24, 48 and 72 h after injection
Protocol: The styryl pyridinium dye FM1-43 provides an optical measure of mechanotransduction channel function and, therefore, was used as a proxy for the viability of the neuromast cells treated with QX-294 or QX-301, as well as indirect information on the functional capability of newly formed HCs. FM1-43FX (Thermo Scientific, Waltham, MA, USA) uptake experiments in zebrafish were performed as previously described. Zebrafish were incubated with E3 alone (control) or in the presence of Qx-294 or Qx-301, both at 300 μM, for 7 h and then immediately exposed to 3 μM FM1-43FX for 40 s. Alternatively, animals were transferred to a fresh E3 solution for 1 h and then exposed to the dye. For mouse treatment, 24, 48, and 72 h after animals were injected with […] Qx-294 or Qx-301, their cochleae were dissected, transiently exposed to FM1-43 FX dye (1 mg/mL) for 45 s, and then fixed in 4% PFA. All animals were P28 at completion of the treatment. Fluorescence incorporated was quantified according to [19] using ImageJ (ImageJ2 1.54r).

mouse auditory function [2] = experiment: Auditory brainstem response (ABR); type: in vivo, mice (Mus musculus); conditions: for ABR vs control, 24 h treatment / ABR hearing vs control: C57BL/6J mice; for ABR vs control, 24 h treatment: 24 h post-treatment; for ABR hearing vs control: greater benefits at higher frequencies and at 48 and 72 h, Two-Way ANOVA, p < 0.01; for Frequency at which modest improvement in hearing threshold begins: audiometric threshold shift (ABR/DPOAE) vs vehicle-only controls
Protocol: (§1) C57BL/6J male and female mice between postnatal day 24 and 30 P-24-30) were randomized into control and experimental groups (9 mice per group per compound), with each experimental group receiving a single intraperitoneal (IP) injection of Qx-294 or Qx-301 at a dose of 300 mg/kg body weight, dissolved in dimethyl sulfoxide (DMSO). Controls consisted of treatment with DMSO alone (vehicle). A total of 90 adult wild-type C57/BL6 mice were used in this study. Based on the analysis, animals were examined at various times following treatment as described below.
(§2) Mice from all groups underwent auditory brainstem response (ABR) and distortion product otoacoustic emissions (DPOAEs) tests before the initiation of treatment with either compounds or vehicle, and at 24, 48, and 72 h post-treatment, as described below. After audiometric testing, pre-treatment mice were placed in a warm and clean cage and monitored until they were awake and able to remain upright in a sternal position. Alternatively, post-treatment mice had their cochleae processed for histological examination.
Mice were anesthetized with a ketamine (18 mg/mL) and xylazine (2 mg/mL) solution (5–9 μL per gram body weight injected intraperitoneally). Core body temperature was maintained at 37.0 ± 0.1 C using a homeothermic heating pad system (FHC, Inc., Bowdoin, ME, USA). Tone burst stimuli were generated and controlled using Tucker Davis Technologies (TDT, Gainesville, FL, USA) System III (RX6, PA5 components). Tone bursts at 8, 16, 32, and 41.2 kHz had 1.0 ms rise-fall times with 1.0 ms plateau (3 ms total duration) and alternating stimulus polarity. Stimuli for ABR testing were calibrated using a Bruel & Kjaar type 4138 ¼” microphone and Nexus type 2691 conditioning amplifier. Stimuli were calibrated in dB peSPL and presented via high-frequency transducers (TDT SA1 driver, MF1 speakers) coupled at the ear via PE tubing. Auditory stimuli were presented at a rate of 17 stimuli per second.

mouse auditory function [3] = experiment: Distortion product otoacoustic emissions (DPOAE); type: in vivo, mice (Mus musculus); conditions: for Frequencies at which DPOAE threshold improvement was statistically significant: 72 h group, p < 0.05; for Frequencies at which DPOAE threshold improvement was statistically significant / DPOAE thresholds at higher frequencies vs control: Two-Way ANOVA; for DPOAE vs control, 24 h treatment / DPOAE thresholds at higher frequencies vs control: C57BL/6J mice; for DPOAE vs control, 24 h treatment: 24 h post-treatment; for DPOAE thresholds at higher frequencies vs control: p < 0.01
Protocol: as §1, §2
Methods for recording distortion product otoacoustic emissions (DPOAEs) were similar to those previously described. Stimuli for DPOAEs were generated and controlled with modules from TDT. Pure tone frequencies (f1, f2, f2/f1 ratio ¼ 1.25), at equal levels (L1 ¼ L2 ¼ 60 dBSPL), 150 ms duration, were generated with independent sources (TDT RX6 processor) and routed through separate drivers to mix acoustically in the ear canal (via plastic tubing placed securely at the external acoustic meatus). Stimuli were calibrated in a 0.1 mL coupler, which simulates the volume of the mouse ear canal. Stimulus frequencies for the primaries are such that geometric mean (GM ¼ (f1 x f2)0.5) frequencies ranged from 6.0 to 48.5 kHz (at least eight frequencies per octave). Ear canal sound pressure levels were recorded using a low-noise probe microphone (Etymotic ER 10Bþ). The microphone output was amplified and fed into the TDT RX6 processor for digital sampling, spectral averaging, and fast Fourier transform (FFT) processing. The amplitude of f1, f2, and the cubic difference distortion product (2f1–f2) were measured from the FFT waveform. The noise floor was measured from the amplitudes in the fifth and twelfth frequency bins above and below (±60 and 120, resp.) the 2f1-f2 component. For statistical comparison (Two-Way ANOVA), the mean DPOAE amplitude across all tested primary frequency pairs was calculated and compared between treatment and control groups.

SMILES: c1ccc2nc(N3CCOCC3)cnc2c1 [Qx-294, 2-(morpholine)-quinoxaline]
- Proliferative state across all tested concentrations (HT-1080): modest yet active proliferative state
- FM1-43 fluorescence intensity incorporated by the cochleae vs control [1]: did not show any significant differences from the control samples
- ABR vs control, 24 h treatment (mouse auditory function [2]): no statistically significant differences
- ABR hearing vs control (mouse auditory function [2]): improved hearing for all test frequencies
- Frequency at which modest improvement in hearing threshold begins (mouse auditory function [2]): ≥ 16 kHz
- Frequencies at which DPOAE threshold improvement was statistically significant (mouse auditory function [3]): above 16 kHz
- DPOAE vs control, 24 h treatment (mouse auditory function [3]): no statistically significant differences
- DPOAE thresholds at higher frequencies vs control (mouse auditory function [3]): significantly lower than those of the control group

SMILES: c1ccc2nc(N3CCCC3)cnc2c1 [Qx-301, 2-(pyrrolidine)-quinoxaline]
- Proliferative state across all tested concentrations (HT-1080): modest yet active proliferative state
- FM1-43 fluorescence intensity incorporated by the cochleae vs control [1]: did not show any significant differences from the control samples
- ABR vs control, 24 h treatment (mouse auditory function [2]): no statistically significant differences
- ABR hearing vs control (mouse auditory function [2]): improved hearing for all test frequencies
- Frequency at which modest improvement in hearing threshold begins (mouse auditory function [2]): ≥ 22.6 kHz
- Frequencies at which DPOAE threshold improvement was statistically significant (mouse auditory function [3]): above 22.6 kHz
- DPOAE vs control, 24 h treatment (mouse auditory function [3]): no statistically significant differences
- DPOAE thresholds at higher frequencies vs control (mouse auditory function [3]): significantly lower than those of the control group
